Results: PMC7897990, “TriTOX: A novel Trichomonas vaginalis assay platform for high-throughput screening of compound libraries” (International Journal for Parasitology: Drugs and Drug …, 2021)
Where two headings read alike, the source gives them in different places. Starred links: 1 amine or outer side, 2 acyl side, 3 side chain; linkers in the order of their positions; H or OH if unused. Positions of bridges follow the written chain, without caps; N, C: chain ends. Non-standard residues stand in square brackets, D forms with d. Residues, ends and D or L forms follow the SMILES beside them. Chains are numbered I, II in the order given. hTyr(3S-OH,4S-OH,3'-OSO3H) = N[C@H](C(=O)O)[C@H](O)[C@@H](O)c1ccc(O)c(OS(=O)(=O)O)c1; Actinocin(9to1) = Cc1c2oc3c(C)ccc(C(=O)[*:1])c3nc-2c(C(=O)[*:2])c(N)c1=O; Orn(4R-OH,5R-OH) = O=C([C@H](C[C@@H](O)[C@@H](O)N[*:3])N[*:1])[*:2]; Pro(3S-OH,4S-Me) = C[C@H]1CN[C@H](C(=O)O)[C@H]1O; Gln(3R-OH) = NC(=O)C[C@@H](O)[C@H](N)C(=O)O; Aoe = N[C@@H](CCCCCC(=O)[C@@H]1CO1)C(=O)O; Hyp = O=C(O)[C@@H]1C[C@@H](O)CN1; NMeV = CN[CH](C(=O)O)C(C)C; Sar = CNCC(=O)O

Tests used:
[1] = tested on: Trichomonas vaginalis G3 trophozoites; settings: for T.vaginalis_Absorbance_Rep1: replicate 1, raw absorbance; for T.vaginalis_Absorbance_Rep2: replicate 2, raw absorbance
[2] = tested on: nontumorigenic neonatal foreskin fibroblast (NFF) cell line
[3] = HTS, parasite screen at 1 µg/mL, replicate 1
[4] = HTS, parasite screen at 1 µg/mL
[5] = HTS, parasite screen at 1 µg/mL, replicate 2
[6] = HTS single concentration, parasite screen 1 µg/mL, replicate 1
[7] = HTS single concentration, parasite screen 1 µg/mL, replicate 2
[8] = NFF_NS1 screen 5 µg/mL, single concentration
[9] = replicate 1, parasite screen at 1 µg/mL
[10] = replicate 2, parasite screen at 1 µg/mL
[11] = parasite screen at 1 µg/mL, replicate 1
[12] = parasite screen at 1 µg/mL, replicate 2
[13] = NFF_NS1 screen at 5 µg/mL, NFF cells
[14] = HTS replicate 1, parasite screen 1 µg/mL
[15] = HTS replicate 2, parasite screen 1 µg/mL
[16] = NFF fibroblasts, single concentration 5 µg/mL

Compound: CC[C@H](C)[C@H]1O[C@]2(C=C[C@@H]1C)C[C@@H]1C[C@@H](C/C=C(\C)[C@@H](O[C@H]3C[C@H](OC)[C@@H](O[C@H]4C[C@H](OC)[C@H](NC(C)=O)[C@H](C)O4)[C@H](C)O3)[C@@H](C)/C=C/C=C3\CO[C@@H]4[C@H](O)C(C)=C[C@@H](C(=O)O1)[C@]34O)O2 [Eprinomectin B1a]
- T.vaginalis_%inb_Rep1 [1, 3]: 13.46%
- T.vaginalis_Absorbance_Rep1 [1, 4]: 0.959
- T.vaginalis_%inb_Rep2 [1, 5]: 14.17%
- T.vaginalis_Absorbance_Rep2 [1, 4]: 0.816
- NFF_Activity ([2]; NFF_NS1 screen at 5 µg/mL): I (otherwise these were reported as inactive (I))

Compound: C[C@@H]1NC(=O)[C@H](CCCCCC(=O)[C@@H]2CO2)NC(=O)[C@H]2CCCN2C(=O)[C@H](Cc2ccccc2)NC1=O [BIA-A1402] (cyclo(AF[dP][Aoe]))
- T.vaginalis_%inb_Rep1 [1, 6]: 64.03%
- T.vaginalis_%inb_Rep2 [1, 7]: 94.29%
- NFF_Activity [2, 8]: I (otherwise these were reported as inactive (I))

Compound: O=C1c2c(O)cc(O)cc2OC1(O)Cc1ccc(O)c(O)c1 (stereo not drawn) [BIA-A1767]
- T.vaginalis_%inb_Rep1 [1, 6]: 15.13%
- T.vaginalis_%inb_Rep2 [1, 7]: 38.61%
- NFF_Activity [2, 8]: I (otherwise these were reported as inactive (I))

Compound: COc1ccc([C@@H]2CC(=O)c3c(O)cc(O[C@@H]4O[C@H](CO[C@@H]5O[C@@H](C)[C@H](O)[C@@H](O)[C@H]5O)[C@@H](O)[C@H](O)[C@H]4O)cc3O2)cc1O [BIA-H1766]
- T.vaginalis_%inb_Rep1 [1, 9]: 15.42%
- T.vaginalis_%inb_Rep2 [1, 10]: 4.23%
- NFF_Activity ([2]; NFF cells, screen at 5 µg/mL): I (otherwise these were reported as inactive (I))

Compound: O=C1CCC[C@@H]2[C@H]3C[C@@H](CN12)[C@@H]1CCCCN1C3 [BIA-L1951]
- T.vaginalis_%inb_Rep1 [1, 9]: 8.91%
- T.vaginalis_%inb_Rep2 [1, 10]: 11.70%
- NFF_Activity ([2]; NFF cells, screen at 5 µg/mL): I (otherwise these were reported as inactive (I))

Compound: COc1cc(-c2ccc(O)cc2)c(OC)c(O)c1-c1ccc(O)cc1 [BIA-T1200]
- T.vaginalis_%inb_Rep1 [1, 11]: 9.75%
- T.vaginalis_%inb_Rep2 [1, 12]: 14.63%
- NFF_Activity [2, 13]: I (otherwise these were reported as inactive (I))

Compound: C[C@@H]1Cc2ccc(C(=O)N[C@@H](Cc3ccccc3)C(=O)O)c(O)c2C(=O)O1 [Ochratoxin B]
- T.vaginalis_%inb_Rep1 [1, 14]: 13.18%
- T.vaginalis_%inb_Rep2 [1, 15]: 9.36%
- NFF_Activity [2, 16]: I (otherwise these were reported as inactive (I))

Compound: C=C(C)[C@@H]1CC[C@]2(C(=O)OC)CC[C@]3(C)[C@H](CC[C@@H]4[C@@]5(C)CC[C@H](O)C(C)(C)[C@@H]5CC[C@]43C)[C@@H]12 [BIA-M1757]
- T.vaginalis_%inb_Rep1 [1, 6]: 14.81%
- T.vaginalis_%inb_Rep2 [1, 7]: 16.56%
- NFF_Activity [2, 8]: I (otherwise these were reported as inactive (I))

Compound: Cc1c2oc3c(C)ccc(C(=O)NC4C(=O)NC(C(C)C)C(=O)N5CCCC5C(=O)N(C)CC(=O)N(C)C(C(C)C)C(=O)OC4C)c3nc-2c(C(=O)NC2C(=O)NC(C(C)C)C(=O)N3CCCC3C(=O)N(C)CC(=O)N(C)C(C(C)C)C(=O)OC2C)c(N)c1=O (stereo not drawn) [BIA-A1185] (I: TVP[Sar][NMeV] / II: TVP[Sar][NMeV]; ester I:1-I:C, II:1-II:C; linker I:N-II:N via Actinocin(9to1); configuration not given here)
- T.vaginalis_%inb_Rep1 [1, 6]: 0.00%
- T.vaginalis_%inb_Rep2 [1, 7]: 40.20%
- NFF_Activity [2, 8]: I (otherwise these were reported as inactive (I))

Compound: CCCCC(C)C=C(C)C=C(C)C(=O)NC1=CC(O)(C=CC=CC=CC(=O)NC2=C(O)CCC2=O)C2OC2C1=O (stereo not drawn) [BIA-M1905]
- T.vaginalis_%inb_Rep1 [1, 9]: 10.60%
- T.vaginalis_%inb_Rep2 [1, 10]: 12.76%
- NFF_Activity ([2]; NFF cells, screen at 5 µg/mL): I (otherwise these were reported as inactive (I))

Compound: C[C@@H](O)[C@@H]1NC(=O)[C@@H](N)C[C@@H](O)[C@@H](O)NC(=O)[C@@H]2[C@@H](O)[C@@H](C)CN2C(=O)[C@H]([C@H](O)CC(N)=O)NC(=O)[C@H]([C@H](O)[C@@H](O)c2ccc(O)c(OS(=O)(=O)O)c2)NC(=O)[C@@H]2C[C@@H](O)CN2C1=O [FR 179642] (H-[Orn(4R-OH,5R-OH)]T[Hyp][hTyr(3S-OH,4S-OH,3'-OSO3H)][Gln(3R-OH)][Pro(3S-OH,4S-Me)]; lactam 1-C)
- T.vaginalis_%inb_Rep1 [1, 3]: 12.98%
- T.vaginalis_Absorbance_Rep1 [1, 4]: 0.95
- T.vaginalis_%inb_Rep2 [1, 5]: 14.17%
- T.vaginalis_Absorbance_Rep2 [1, 4]: 0.816
- NFF_Activity ([2]; NFF_NS1 screen at 5 µg/mL): I (otherwise these were reported as inactive (I))

Compound: OCC1=CC(NC2CC(CO)C(OC3OC(CO)C(O)C(O)C3O)C(O)C2O)C(O)C(O)C1O (stereo not drawn) [Validamycin A]
- T.vaginalis_%inb_Rep1 [1, 3]: 14.26%
- T.vaginalis_%inb_Rep2 [1, 5]: 19.07%
- NFF_Activity ([2]; NFF fibroblast screen at 5 µg/mL, A = active, I = inactive): I (otherwise these were reported as inactive (I))

Compound: Nargenicin
- T.vaginalis_%inb_Rep1 [1, 14]: 10.70%
- T.vaginalis_%inb_Rep2 [1, 15]: 13.02%
- NFF_Activity [2, 16]: I (otherwise these were reported as inactive (I))

Compound: CN(N=O)C(=O)N[C@@H]1[C@@H](O)[C@H](O)[C@@H](CO)O[C@@H]1O [BIA-S1186]
- T.vaginalis_%inb_Rep1 [1, 11]: 9.02%
- T.vaginalis_%inb_Rep2 [1, 12]: 7.62%
- NFF_Activity [2, 13]: I (otherwise these were reported as inactive (I))

Compound: C[C@@H]1C[C@H]2O[C@@H]2/C=C\C=C\C(=O)Cc2c(Cl)c(O)cc(O)c2C(=O)O1 [BIA-R1148]
- T.vaginalis_%inb_Rep1 [1, 11]: 12.83%
- T.vaginalis_%inb_Rep2 [1, 12]: 10.33%
- NFF_Activity [2, 13]: A (active (A) compounds having >25% inhibitory activity)

Compound: COc1cc(C)c2c(OC)cc(=O)oc2c1-c1c(OC)cc(C)c2c(OC)cc(=O)oc12 [BIA-K1634]
- T.vaginalis_%inb_Rep1 [1, 9]: 14.30%
- T.vaginalis_%inb_Rep2 [1, 10]: 13.02%
- NFF_Activity ([2]; NFF cells, screen at 5 µg/mL): I (otherwise these were reported as inactive (I))

Compound: COC1=CC(C)=CC(C)C(O)C(C)CC(C)=CC=CC(OC)C(C(C)C(O)C(C)C(=O)C=CC(C)C(O)C(C)C)OC1=O (stereo not drawn) [BIA-B1162]
- T.vaginalis_%inb_Rep1 [1, 6]: 15.67%
- T.vaginalis_%inb_Rep2 [1, 7]: 18.37%
- NFF_Activity [2, 8]: I (otherwise these were reported as inactive (I))

Compound: CC(C)C[C@H]1C(=O)O[C@H](C(C)C)C(=O)N(C)[C@@H](CC(C)C)C(=O)O[C@H](C(C)C)C(=O)N(C)[C@@H](CC(C)C)C(=O)O[C@H](C(C)C)C(=O)N(C)[C@@H](CC(C)C)C(=O)O[C@H](C(C)C)C(=O)N1C [BIA-B1557]
- T.vaginalis_%inb_Rep1 [1, 6]: 15.24%
- T.vaginalis_%inb_Rep2 [1, 7]: 16.12%
- NFF_Activity [2, 8]: I (otherwise these were reported as inactive (I))

Compound: Cc1cc(O)c(C)c(O)c1C(=O)O [BIA-M1661]
- T.vaginalis_%inb_Rep1 [1, 9]: 12.78%
- T.vaginalis_%inb_Rep2 [1, 10]: 12.06%
- NFF_Activity ([2]; NFF cells, screen at 5 µg/mL): A (active (A) compounds having >25% inhibitory activity)

Compound: CC[C@H]1OC(=O)[C@H](C)[C@@H](O[C@H]2C[C@@](C)(OC)[C@@H](O)[C@H](C)O2)[C@H](C)[C@@H](O[C@@H]2O[C@H](C)C[C@H]([N+](C)(C)[O-])[C@H]2O)[C@](C)(O)C[C@@H](C)C(=O)[C@H](C)[C@@H](O)[C@]1(C)O [Erythromycin A N-oxide]
- T.vaginalis_%inb_Rep1 [1, 3]: 6.03%
- T.vaginalis_Absorbance_Rep1 [1, 4]: 0.821
- T.vaginalis_%inb_Rep2 [1, 5]: 9.83%
- T.vaginalis_Absorbance_Rep2 [1, 4]: 0.756
- NFF_Activity ([2]; NFF_NS1 screen at 5 µg/mL): I (otherwise these were reported as inactive (I))

Compound: C[C@@]12CCC[C@@]34CCC[C@@H](C=C[C@H]1CC3)N42 [Porantherine]
- T.vaginalis_%inb_Rep1 [1, 14]: 9.49%
- T.vaginalis_%inb_Rep2 [1, 15]: 15.78%
- NFF_Activity [2, 16]: I (otherwise these were reported as inactive (I))

Compound: Cc1cc(O)cc(=O)o1 [BIA-H1736]
- T.vaginalis_%inb_Rep1 [1, 9]: 11.05%
- T.vaginalis_%inb_Rep2 [1, 10]: 13.86%
- NFF_Activity ([2]; NFF cells, screen at 5 µg/mL): I (otherwise these were reported as inactive (I))

Compound: CC(/C=C/[C@@]1(C)[C@H](C)CCC(=O)[C@@H]1C)=C\Cc1c(O)c(Cl)c(C)c(C=O)c1O [BIA-A1115]
- T.vaginalis_%inb_Rep1 [1, 6]: 16.42%
- T.vaginalis_%inb_Rep2 [1, 7]: 18.08%
- NFF_Activity [2, 8]: I (otherwise these were reported as inactive (I))

Compound: COC(=O)C1=CO[C@@H](C)[C@@H]2CN3CCc4c([nH]c5cc(OC)c(OC)cc45)[C@@H]3C[C@H]12 [BIA-I1957]
- T.vaginalis_%inb_Rep1 [1, 9]: 9.33%
- T.vaginalis_%inb_Rep2 [1, 10]: 14.44%
- NFF_Activity ([2]; NFF cells, screen at 5 µg/mL): I (otherwise these were reported as inactive (I))

Compound: COC1=CC(C)=CC(C)C(O)C(C)CC(C)=CC=CC(OC)C(C(C)C(O)C(C)C2(O)CC(OC(=O)C=CC(=O)NC3=C(O)CCC3=O)C(C)C(C(C)C)O2)OC1=O (stereo not drawn) [BIA-B1110]
- T.vaginalis_%inb_Rep1 [1, 6]: 72.75%
- T.vaginalis_%inb_Rep2 [1, 7]: 93.35%
- NFF_Activity [2, 8]: I (otherwise these were reported as inactive (I))

Compound: CCCCCCCCCCCCCCCCCC(=O)N[C@H]1CCOC1=O [Octadecanoyl-L-homoserine lactone]
- T.vaginalis_%inb_Rep1 [1, 14]: 12.02%
- T.vaginalis_%inb_Rep2 [1, 15]: 13.47%
- NFF_Activity [2, 16]: I (otherwise these were reported as inactive (I))

Compound: CC1=C[C@H]2O[C@@H]3[C@H](O)[C@@H](O)[C@](C)([C@@]2(CO)C[C@@H]1OC(=O)CC(C)C)[C@]31CO1 [BIA-T1934]
- T.vaginalis_%inb_Rep1 [1, 11]: 10.70%
- T.vaginalis_%inb_Rep2 [1, 12]: 12.37%
- NFF_Activity [2, 13]: I (otherwise these were reported as inactive (I))
